Reference: US20250230226A1, “PLXDC1/PLXDC2 ACTIVATORS AND THEIR USE IN THE TREATMENT OF BLOOD VESSEL DISORDERS” (THE REGENTS OF THE UNIVERSITY OF CALIFORNIA, priority 2019, published 2025)

Experiments:
tumor blood vessels = assay: Systemic administration in tumor-bearing mouse (FIG. 7); assay type: in vivo
From the text: FIG. 7A-D. Systemic administration of a compound that targets PLXDC1 and PLXDC2 kills existing tumor blood vessels and leads to massive tumor necrosis. […] The high specificity of the treatment is illustrated by the healthy skin blood vessels that cover the dead yellow tumor. C. The tumor from control mouse in A is cut open to reveal that it is rich in tumor blood vessels and is a live tumor. D. The tumor from compound-treated mouse in B is cut open to reveal a lack of tumor blood vessels and a necrotic tumor with yellow cheese-like appearance (coagulative necrosis). Coagulative necrosis is exactly what is expected for a treatment that can kill existing tumor blood vessels to block major blood supplies to the tumor. Precise and efficient killing of tumor blood vessels to cause massive tumor death by necrosis, which has been achieved by the compound 369 targeting PLXDC1/PLXDC2, cannot be achieved by any existing drugs or known antiangiogenic factors.
The tumor died of massive coagulative necrosis, exactly the kind of cell death caused by killing blood vessels.

tumor endothelial cells = assay: Ex vivo model of tumor angiogenesis, comparison with anti-VEGF drug and PEDF (FIG. 4); assay type: cell-based; details: cells grown 5 days, test reagents added for 2 days
Protocol: FIG. 4A-F. A comparison between an anti-VEGF drug, PEDF and two compounds that target PLXDC1/PLXDC2 in an ex vivo model of tumor angiogenesis. […] Tumor endothelial cells were grown for 5 days before test reagents were added for 2 days. Green cells are live cells and red cells are dead cells.
• 1. The day before the experiment, all necessary tools were sprayed with 70% ethanol and sterilized under UV light overnight, including blade, dissecting and micro-dissecting scissors and […]. 24-well dishes were placed at 4° C. to pre-chill plates and Matrigel was thawed, 24 hours before tumor dissection. • 2. 70% ethanol was sprayed on working bench. Two sterile petri dishes were prepared with 10 ml sterile PBS. The following steps 3 and 4 are necessary for mouse tumor models. For fresh human tumor, steps 3 and 4 are skipped. • 3. The tumor-bearing mice were euthanized. 70% ethanol was sprayed on the mouse and the tumor was removed using sterilized dissecting tools (avoid the fur). The tumor was rinsed in petri dish with sterile PBS to remove ethanol and fur. […] When the assay was ready to be analyzed for cell death (e.g., 48 hours after drug addition), the dye mixture was prepared by mixing 6 μl of green dye to stain live cells (5 mg/ml Fluorescein diacetate or FDA in DMSO) with 30 μl of red dye (2.5 mg/ml Propidium iodide or PI in PBS) to stain dead cells in an Eppendorf tube. […]

[1] = tested on: choroidal endothelial cells; assay: Ex vivo model of choroidal angiogenesis (FIG. 2); assay type: cell-based
Protocol: FIG. 2A-E. Comparison of compound 369 (Table 3) with the current anti-angiogenic drug in an ex vivo model of choroidal angiogenesis. A. A schematic diagram of the timeframe of the experiment. […] Treatment lasts for two days before cell death and survival are analyzed. B. Control experiment without any drug treatment at day 7. The white circle in the middle delineates the piece of choroid/RPE that was embedded to initiate neovascularization. C. […] Eylea was added at 10 μM. […] The compound was added at 10 μM. In B-D, green cells are live cells and red cells are dead cells. E. Quantitation of the experiments described in B-D. The amount of new endothelial cells in the untreated control is defined as 100%.

[2] = tested on: LL/2 lung cancer tumor endothelial cells; assay: Lung LL2 ex vivo model of tumor angiogenesis; assay type: cell-based, mouse; details: 20 μm
Outline: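 LL2 mouse tumor fragments (~0.075 mm³) embedded in Matrigel and cultured in endothelial growth medium at 37 °C until endothelial outgrowth (~4 days) before treatment. Cell death assessed e.g. 48 h after drug by fluorescein diacetate (live)/propidium iodide (dead) staining and red/green fluorescence imaging.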

Compound: CCCCCCCCCCCCOc1ccc(S(=O)(=O)c2cnc3ccc([S+](C)[O-])cc3c2N2CCC(N3CCC(N4CCN(CCO)CC4)CC3)CC2)cc1F (stereo not drawn) [Compound 369]
- Killing of existing tumor blood vessels and tumor death (tumor blood vessels): can kill existing tumor blood vessels and lead to strong tumor death
- Killing of existing tumor endothelial cells (tumor endothelial cells): can kill existing tumor endothelial cells
- Killing of endothelial cells in choroidal angiogenesis ([1]; added at 10 μM at day 7, treatment two days): can kill the endothelial cells
- Effect on healthy tissue (choroid and retinal pigment epithelium) ([1]; added at 10 μM, two days): without affecting the healthy tissue
- 48 hrs (morphology observations) ([2]; 48 hours, LL/2 tumor endothelial cells): * (50% or less of cells vesicularize in cell shape)
- Cell death ([2]; drug treatment for two days, ratio of red area to total endothelial cell area): 20%
